Values belong to the compound of their own block, whether it stands above or below them.
Tested on: 636577-100-R-J1-PDC complex spheroid viability
Experiment: Anticancer human tumor 636577-100-R-J1-PDC patient-derived endometrial adenocarcinoma cell line growth inhibition [GQUAD]
Details: for IC50: curve of first compound; for viability, T/C: stronger effect = lower value
Summary of the method: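 Multi-cell-type spheroids of tumor cells with HUVEC and mesenchymal stem cells, treated with drug combinations. Concentrations descend in half-log steps from near clinical Cmax, or from 10 microM where Cmax is unknown; viability read-out.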

[1] = second compound 0.0316 µM, first compound 0.0316 µM
[2] = second compound 0.0316 µM, first compound 0.316 µM
[3] = second compound 0.1 µM, first compound 0.0316 µM
[4] = second compound 0.1 µM, first compound 0.316 µM
[5] = second compound 0.316 µM, first compound 0.0316 µM
[6] = second compound 0.316 µM, first compound 0.316 µM
[7] = second compound 1 µM, first compound 0.0316 µM
[8] = second compound 1 µM, first compound 0.316 µM
[9] = second compound 3.16 µM, first compound 0.0316 µM
[10] = second compound 3.16 µM, first compound 0.316 µM
[11] = second compound 10 µM, first compound 0.0316 µM
[12] = second compound 10 µM, first compound 0.316 µM
[13] = second compound 0.0316 µM, first compound 0.1 µM
[14] = second compound 0.0316 µM, first compound 1 µM
[15] = second compound 0.0316 µM, first compound 3.16 µM
[16] = second compound 0.0316 µM, first compound 10 µM
[17] = second compound 0.1 µM, first compound 0.1 µM
[18] = second compound 0.1 µM, first compound 1 µM
[19] = second compound 0.1 µM, first compound 3.16 µM
[20] = second compound 0.1 µM, first compound 10 µM
[21] = second compound 0.316 µM, first compound 0.1 µM
[22] = second compound 0.316 µM, first compound 1 µM
[23] = second compound 0.316 µM, first compound 3.16 µM
[24] = second compound 0.316 µM, first compound 10 µM
[25] = second compound 1 µM, first compound 0.1 µM
[26] = second compound 1 µM, first compound 1 µM
[27] = second compound 1 µM, first compound 3.16 µM
[28] = second compound 1 µM, first compound 10 µM
[29] = second compound 3.16 µM, first compound 0.1 µM
[30] = second compound 3.16 µM, first compound 1 µM
[31] = second compound 3.16 µM, first compound 3.16 µM
[32] = second compound 3.16 µM, first compound 10 µM
[33] = second compound 10 µM, first compound 0.1 µM
[34] = second compound 10 µM, first compound 1 µM
[35] = second compound 10 µM, first compound 3.16 µM
[36] = second compound 10 µM, first compound 10 µM
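Further: viability read after seven days of drug exposure.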
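Wherever viability, T/C is given: luminescence signal used as a proxy for viable cells; 100% = DMSO vehicle control wells.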

IC50 (second compound 0.0316 µM): < 0.999 nM
IC50 (second compound 0.1 µM): < 0.999 nM
IC50 (second compound 0.316 µM): < 0.999 nM
IC50 (second compound 1 µM): < 0.999 nM
IC50 (second compound 3.16 µM): < 0.999 nM
IC50 (second compound 10 µM): < 0.999 nM
SMILES: Cc1[nH]c2ccccc2c1CCNCc1ccc(/C=C/C(=O)NO)cc1 + Cc1cnc(CNC(=O)c2c(=O)c3ccc(N4CCCN(C)CC4)nc3n3c2sc2ccccc23)cn1
viability, T/C (second compound 0.0316 µM, first compound 0.000999 µM): 49.7%
viability, T/C (second compound 0.0316 µM, first compound 0.00316 µM): 28.9%
viability, T/C (second compound 0.0316 µM, first compound 0.00999 µM): 20.8%
viability, T/C [1]: 12.3%
viability, T/C (second compound 0.0316 µM, first compound 0.0999 µM): 6.33%
viability, T/C [2]: 8.17%
viability, T/C (second compound 0.1 µM, first compound 0.000999 µM): 32.3%
viability, T/C (second compound 0.1 µM, first compound 0.00316 µM): 22.8%
viability, T/C (second compound 0.1 µM, first compound 0.00999 µM): 24.6%
viability, T/C [3]: 12.8%
viability, T/C (second compound 0.1 µM, first compound 0.0999 µM): 6.63%
viability, T/C [4]: 8.31%
viability, T/C (second compound 0.316 µM, first compound 0.000999 µM): 26.1%
viability, T/C (second compound 0.316 µM, first compound 0.00316 µM): 24.2%
viability, T/C (second compound 0.316 µM, first compound 0.00999 µM): 18.9%
viability, T/C [5]: 13.2%
viability, T/C (second compound 0.316 µM, first compound 0.0999 µM): 9.48%
viability, T/C [6]: 8.5%
viability, T/C (second compound 1 µM, first compound 0.000999 µM): 21.1%
viability, T/C (second compound 1 µM, first compound 0.00316 µM): 20.9%
viability, T/C (second compound 1 µM, first compound 0.00999 µM): 18.7%
viability, T/C [7]: 11.1%
viability, T/C (second compound 1 µM, first compound 0.0999 µM): 8.25%
viability, T/C [8]: 8.1%
viability, T/C (second compound 3.16 µM, first compound 0.000999 µM): 20.2%
viability, T/C (second compound 3.16 µM, first compound 0.00316 µM): 23.3%
viability, T/C (second compound 3.16 µM, first compound 0.00999 µM): 21.2%
viability, T/C [9]: 12.3%
viability, T/C (second compound 3.16 µM, first compound 0.0999 µM): 10.4%
viability, T/C [10]: 5.1%
viability, T/C (second compound 10 µM, first compound 0.000999 µM): 22.6%
viability, T/C (second compound 10 µM, first compound 0.00316 µM): 24.1%
viability, T/C (second compound 10 µM, first compound 0.00999 µM): 20.1%
viability, T/C [11]: 11.8%
viability, T/C (second compound 10 µM, first compound 0.0999 µM): 12.2%
viability, T/C [12]: 0.15%

IC50 (second compound 0.0316 µM): < 31.6 nM
IC50 (second compound 0.1 µM): < 31.6 nM
IC50 (second compound 0.316 µM): < 31.6 nM
IC50 (second compound 1 µM): < 31.6 nM
IC50 (second compound 3.16 µM): < 31.6 nM
IC50 (second compound 10 µM): < 31.6 nM
SMILES: Nc1ccn(C2OC(CO)C(O)C2(F)F)c(=O)n1 (stereo not drawn) + Cc1cnc(CNC(=O)c2c(=O)c3ccc(N4CCCN(C)CC4)nc3n3c2sc2ccccc23)cn1
viability, T/C [1]: 15.9%
viability, T/C [13]: 13.3%
viability, T/C [2]: 15%
viability, T/C [14]: 12.4%
viability, T/C [15]: 13.6%
viability, T/C [16]: 12.1%
viability, T/C [3]: 17.9%
viability, T/C [17]: 13.8%
viability, T/C [4]: 16.3%
viability, T/C [18]: 13.3%
viability, T/C [19]: 16.2%
viability, T/C [20]: 14.6%
viability, T/C [5]: 17.6%
viability, T/C [21]: 15.1%
viability, T/C [6]: 16.5%
viability, T/C [22]: 15.2%
viability, T/C [23]: 16.3%
viability, T/C [24]: 13.9%
viability, T/C [7]: 14.7%
viability, T/C [25]: 14.8%
viability, T/C [8]: 16.6%
viability, T/C [26]: 17.5%
viability, T/C [27]: 16.6%
viability, T/C [28]: 15.3%
viability, T/C [9]: 15.4%
viability, T/C [29]: 16.5%
viability, T/C [10]: 17.9%
viability, T/C [30]: 17.7%
viability, T/C [31]: 17.6%
viability, T/C [32]: 12.7%
viability, T/C [11]: 18.2%
viability, T/C [33]: 13.8%
viability, T/C [12]: 18.1%
viability, T/C [34]: 16.4%
viability, T/C [35]: 16.3%
viability, T/C [36]: 13.5%

IC50 (second compound 0.0316 µM): < 31.6 nM
IC50 (second compound 0.1 µM): < 31.6 nM
IC50 (second compound 0.316 µM): < 31.6 nM
IC50 (second compound 1 µM): < 31.6 nM
IC50 (second compound 3.16 µM): < 31.6 nM
IC50 (second compound 10 µM): < 31.6 nM
SMILES: O=C(NO)c1cnc(N2CCN(S(=O)(=O)c3ccc4ccccc4c3)CC2)nc1 + Cc1cnc(CNC(=O)c2c(=O)c3ccc(N4CCCN(C)CC4)nc3n3c2sc2ccccc23)cn1
viability, T/C [1]: 29.4%
viability, T/C [13]: 20.2%
viability, T/C [2]: 6.22%
viability, T/C [14]: 5.24%
viability, T/C [15]: 0.21%
viability, T/C [16]: 0.09%
viability, T/C [3]: 24.2%
viability, T/C [17]: 17.7%
viability, T/C [4]: 6.24%
viability, T/C [18]: 5.27%
viability, T/C [19]: 0.47%
viability, T/C [20]: 0.08%
viability, T/C [5]: 20%
viability, T/C [21]: 15.8%
viability, T/C [6]: 6.06%
viability, T/C [22]: 4.96%
viability, T/C [23]: 0.17%
viability, T/C [24]: 0.07%
viability, T/C [7]: 21.5%
viability, T/C [25]: 16.8%
viability, T/C [8]: 6.11%
viability, T/C [26]: 6.97%
viability, T/C [27]: 0.05%
viability, T/C [28]: 0.07%
viability, T/C [9]: 16.3%
viability, T/C [29]: 17.7%
viability, T/C [10]: 9.78%
viability, T/C [30]: 3.81%
viability, T/C [31]: 0.06%
viability, T/C [32]: 0.08%
viability, T/C [11]: 21.6%
viability, T/C [33]: 16.5%
viability, T/C [12]: 10.8%
viability, T/C [34]: 0.08%
viability, T/C [35]: 0.09%
viability, T/C [36]: 0.11%

IC50 (second compound 0.0316 µM): < 31.6 nM
IC50 (second compound 0.1 µM): < 31.6 nM
IC50 (second compound 0.316 µM): < 31.6 nM
IC50 (second compound 1 µM): < 31.6 nM
IC50 (second compound 3.16 µM): < 31.6 nM
IC50 (second compound 10 µM): < 31.6 nM
SMILES: O=c1[nH]cc(F)c(=O)[nH]1 + Cc1cnc(CNC(=O)c2c(=O)c3ccc(N4CCCN(C)CC4)nc3n3c2sc2ccccc23)cn1
viability, T/C [1]: 47.8%
viability, T/C [13]: 45.1%
viability, T/C [2]: 49.7%
viability, T/C [14]: 39.9%
viability, T/C [15]: 36.7%
viability, T/C [16]: 21.3%
viability, T/C [3]: 28.9%
viability, T/C [17]: 26.9%
viability, T/C [4]: 27.6%
viability, T/C [18]: 25.9%
viability, T/C [19]: 25.5%
viability, T/C [20]: 18.4%
viability, T/C [5]: 24.2%
viability, T/C [21]: 23.3%
viability, T/C [6]: 17.6%
viability, T/C [22]: 21.9%
viability, T/C [23]: 22.2%
viability, T/C [24]: 16.6%
viability, T/C [7]: 21.3%
viability, T/C [25]: 21.1%
viability, T/C [8]: 19.7%
viability, T/C [26]: 23%
viability, T/C [27]: 21.1%
viability, T/C [28]: 20.1%
viability, T/C [9]: 20%
viability, T/C [29]: 19.5%
viability, T/C [10]: 21.8%
viability, T/C [30]: 24.1%
viability, T/C [31]: 21%
viability, T/C [32]: 22%
viability, T/C [11]: 17.7%
viability, T/C [33]: 17.9%
viability, T/C [12]: 18%
viability, T/C [34]: 18.7%
viability, T/C [35]: 20.4%
viability, T/C [36]: 20.1%

From PubChem BioAssay AID2060504 (Molecular Pharmacology Branch, DTP, NCI, 2025)
